What is called IC50 is the concentration at which inhibition is half-maximal. A higher IC50 goes with lower potency.

Molecules are shown by their SMILES. Where only a bound is given, the exact number is not on record here.

The values that follow come from patent US11040981B2, “Pyrrolotriazine compounds and methods of inhibiting TAM kinases” (Syros Pharmaceuticals, Inc., priority 2017, dated 2021).

In one assay the target is T1, AXL (Homo sapiens, UniProt P30530).
T1 sequence (P30530 26-894): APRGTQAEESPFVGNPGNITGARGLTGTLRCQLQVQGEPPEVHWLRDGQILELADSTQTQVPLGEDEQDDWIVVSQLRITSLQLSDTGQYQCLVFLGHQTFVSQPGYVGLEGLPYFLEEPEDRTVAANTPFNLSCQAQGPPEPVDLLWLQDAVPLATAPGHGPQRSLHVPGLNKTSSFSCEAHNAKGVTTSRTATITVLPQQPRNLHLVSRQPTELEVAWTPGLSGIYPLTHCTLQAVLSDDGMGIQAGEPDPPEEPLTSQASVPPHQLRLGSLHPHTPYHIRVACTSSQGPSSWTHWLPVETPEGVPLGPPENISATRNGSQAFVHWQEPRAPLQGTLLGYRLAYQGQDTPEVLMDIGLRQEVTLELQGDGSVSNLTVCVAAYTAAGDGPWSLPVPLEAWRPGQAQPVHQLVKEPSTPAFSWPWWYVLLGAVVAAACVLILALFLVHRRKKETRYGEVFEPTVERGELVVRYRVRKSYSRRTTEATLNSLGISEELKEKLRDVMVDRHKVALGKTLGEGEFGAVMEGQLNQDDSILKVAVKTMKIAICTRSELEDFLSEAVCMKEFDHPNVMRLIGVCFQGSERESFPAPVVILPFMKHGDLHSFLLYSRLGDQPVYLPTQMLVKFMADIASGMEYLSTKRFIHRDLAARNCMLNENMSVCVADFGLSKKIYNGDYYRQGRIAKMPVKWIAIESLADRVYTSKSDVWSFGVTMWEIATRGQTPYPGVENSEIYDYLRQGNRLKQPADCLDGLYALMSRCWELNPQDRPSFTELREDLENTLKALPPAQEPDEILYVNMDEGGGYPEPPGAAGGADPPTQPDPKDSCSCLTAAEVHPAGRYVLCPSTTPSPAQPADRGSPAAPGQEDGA
As to the kind of experiment: TR-FRET kinase activity assay, AXL. The settings on record: ATP at Km, 60 minutes. The assay is classed as biochemical. Summed up: (§1)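 Enzyme, fluorescent peptide substrate and compound were mixed, and the reaction was started with ATP at each kinase's Km, in 50 mM HEPES pH 7.5, 10 mM MgCl2, 1 mM EGTA, 0.01% Brij 35, 1 mM DTT at RT. After 60 minutes EDTA quench, Eu-labelled phospho-specific antibody was added for 30 minutes, and IC50 was derived from TR-FRET signal loss.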

For the next assay, the target named is T2, FLT3 (Homo sapiens, UniProt P36888).
T2 sequence (P36888 27-993): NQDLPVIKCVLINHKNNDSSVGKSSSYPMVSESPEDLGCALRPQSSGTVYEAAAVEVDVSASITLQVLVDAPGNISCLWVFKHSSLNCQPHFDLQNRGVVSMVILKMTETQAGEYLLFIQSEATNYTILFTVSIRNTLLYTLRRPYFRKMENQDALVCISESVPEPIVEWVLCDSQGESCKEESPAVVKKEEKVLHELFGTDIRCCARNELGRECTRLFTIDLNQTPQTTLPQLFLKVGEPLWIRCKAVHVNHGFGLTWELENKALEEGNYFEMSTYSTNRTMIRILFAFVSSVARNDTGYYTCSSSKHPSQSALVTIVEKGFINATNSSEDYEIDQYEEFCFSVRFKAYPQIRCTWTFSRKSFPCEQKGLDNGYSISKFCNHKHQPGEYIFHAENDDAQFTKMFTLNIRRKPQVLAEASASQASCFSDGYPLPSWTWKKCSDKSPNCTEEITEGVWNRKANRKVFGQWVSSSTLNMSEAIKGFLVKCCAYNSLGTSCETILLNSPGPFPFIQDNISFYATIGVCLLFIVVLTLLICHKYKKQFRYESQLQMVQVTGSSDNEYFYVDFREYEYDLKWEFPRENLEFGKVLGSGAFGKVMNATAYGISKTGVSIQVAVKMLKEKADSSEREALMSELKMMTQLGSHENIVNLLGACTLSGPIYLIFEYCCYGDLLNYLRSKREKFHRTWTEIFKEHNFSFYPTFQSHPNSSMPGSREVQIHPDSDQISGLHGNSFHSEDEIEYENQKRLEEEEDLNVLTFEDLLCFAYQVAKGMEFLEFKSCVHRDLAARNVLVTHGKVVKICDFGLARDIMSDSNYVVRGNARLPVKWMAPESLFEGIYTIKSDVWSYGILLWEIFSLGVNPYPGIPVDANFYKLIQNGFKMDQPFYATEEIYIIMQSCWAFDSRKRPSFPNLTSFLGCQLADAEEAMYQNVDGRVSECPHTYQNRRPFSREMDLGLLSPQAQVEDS
As to the kind of experiment: TR-FRET kinase activity assay, FLT3. The settings on record: ATP at Km, 60 minutes. The assay is classed as biochemical. A digest of the protocol: as §1
In general terms: In TR-FRET formats the signal depends on donor and acceptor labels being close together.

For `COC[C@H](C)Nc1ncc2c(-c3ccnc(O[C@@H]4CCCN(C)C4)c3)cc([C@H]3CC[C@H](O)CC3)n2n1` [Compound 404], the IC50 was at most 0.1 µM on AXL and 0.1 to 1 µM against FLT3.

Regarding `CNS(=O)(=O)c1ccc(-c2cc([C@H]3CC[C@H](O)CC3)n3nc(N[C@@H](C)CC(F)(F)F)ncc23)cn1` [Compound 360], the IC50 against AXL and against FLT3 was at most 0.1 µM throughout.

Consider `CCCCC[C@H](C)Nc1ncc2c([C@H]3CC[C@@H](C(=O)O)CC3)cc([C@H]3CC[C@H](O)CC3)n2n1` [Compound 125, (cis)-4-(2-((S)-heptan-2-ylamino)-7-((trans)-4-hydroxycyclohexyl)pyrrolo[2,1-f][1,2,4]triazin-5-yl)cyclohexanecarboxylic acid], for which the IC50 on AXL was 0.1 to 1 µM; against FLT3, 1 to 10 µM.

As for `COC[C@H](C)Nc1ncc2c(-c3cnn(CC4COC4)c3)cc([C@H]3CC[C@H](O)CC3)n2n1` [Compound 420], the IC50 against AXL was at most 0.1 µM; against FLT3, 0.1 to 1 µM.

On to `COC[C@H](C)Nc1ncc2c(-c3cnn(C4CCN(C)C4=O)c3)cc([C@H]3CC[C@H](O)CC3)n2n1` (stereo partly drawn) [Compound 394, 3-(4-(7-((trans)-4-hydroxycyclohexyl)-2-(((S)-1-methoxypropan-2-yl)amino)pyrrolo[2,1-f][1,2,4]triazin-5-yl)-1H-pyrazol-1-yl)-1-methylpyrrolidin-2-one], for which the IC50 against AXL is at most 0.1 µM; on FLT3 it was 0.1 to 1 µM.

For the compound `COC[C@H](C)Nc1ncc2c(-c3ccnc(O[C@H]4CCCN(C)C4)c3)cc([C@H]3CC[C@H](O)CC3)n2n1` [Compound 403], the figures for the IC50 against AXL and against FLT3 were at most 0.1 µM and 0.1 to 1 µM, respectively.

For the compound `COC[C@H](C)Nc1ncc2c(-c3cnn(C4(C(=O)N5CCCC5)CC4)c3)cc([C@H]3CC[C@H](O)CC3)n2n1` [Compound 408], the IC50 at AXL is at most 0.1 µM; against FLT3 it was 0.1 to 1 µM.

Consider `COC[C@H](C)Nc1ncc2c(-c3cnn([C@H]4CCC(C(=O)OC(C)(C)C)C4)c3)cc([C@H]3CC[C@H](O)CC3)n2n1` (stereo partly drawn) [Compound 365], for which the IC50 at AXL is at most 0.1 µM; on FLT3, 0.1 to 1 µM.

On to `COC[C@H](C)Nc1ncc2c(-c3ccnc(N[C@@H]4CCOC4)c3)cc([C@H]3CC[C@H](O)CC3)n2n1` [Compound 416], for which the IC50 on AXL was at most 0.1 µM; against FLT3 it was 0.1 to 1 µM.

For the compound `COCC(C)Nc1ncc2c(C3CCCN(C(C)=O)C3)cc(C3CCC(O)CC3)n2n1` (stereo not drawn) [Compound 371], the IC50 at AXL and at FLT3 was 1 to 10 µM throughout.

Turning to `CNC(=O)c1cncc(-c2cc([C@H]3CC[C@H](O)CC3)n3nc(N[C@@H](C)COC(F)F)ncc23)c1` [Compound 398], the IC50 on AXL was at most 0.1 µM; against FLT3, 1 to 10 µM.

Turning to `COC[C@H](C)Nc1ncc2c(-c3ccnc(C)c3)cc([C@H]3CC[C@@](C)(O)CC3)n2n1` [Compound 381], the values for the IC50 on AXL and against FLT3 were at most 0.1 µM and 1 to 10 µM, respectively.

Take `COC[C@H](C)Nc1ncc2c([C@@H]3CCCN(C(C)=O)C3)cc([C@H]3CC[C@H](O)CC3)n2n1` [Compound 372]: the IC50 on AXL and against FLT3 was 1 to 10 µM in each case.

For the compound `COC[C@H](C)Nc1ncc2c(-c3ccnc(O[C@H]4CCNC4)c3)cc([C@H]3CC[C@H](O)CC3)n2n1` [Compound 386], the IC50 at AXL is at most 0.1 µM; on FLT3 it was 0.1 to 1 µM.

For `COC[C@H](C)Nc1ncc2c(-c3cnn(C4(C(=O)N5CCOCC5)CC4)c3)cc([C@H]3CC[C@H](O)CC3)n2n1` [Compound 414], the IC50 was at most 0.1 µM against AXL and 1 to 10 µM on FLT3.

Take `CNC(=O)c1ncc(-c2cc([C@H]3CC[C@H](O)CC3)n3nc(N[C@@H](C)CC(F)(F)F)ncc23)cn1` [Compound 347]: the IC50 against AXL and at FLT3 was at most 0.1 µM each time.

In the case of `COC[C@H](C)Nc1ncc2c(-c3cnn([C@@H]4CO[C@H]5OCC[C@H]54)c3)cc([C@H]3CC[C@H](O)CC3)n2n1` [Compound 422], the IC50 on AXL was at most 0.1 µM; against FLT3, 0.1 to 1 µM.

For `CC(=O)N1CCN(Cc2ccc(-c3cc([C@H]4CC[C@H](O)CC4)n4nc(N[C@@H](C)COC(F)F)ncc34)cc2)CC1` [Compound 413], the IC50 against AXL and at FLT3 was at most 0.1 µM in each case.

Regarding `COCC(C)Nc1ncc2c(C3CCN(c4ccnc(C)n4)C3)cc(C3CCC(O)CC3)n2n1` (stereo not drawn) [Compound 373], the IC50 against AXL was 0.1 to 1 µM; against FLT3 it was 1 to 10 µM.

In the case of `COC[C@H](C)Nc1ncc2c(-c3ccnc(C)c3)cc([C@H]3CC[C@](C)(O)CC3)n2n1` [Compound 391], the results for the 50% inhibitory concentration (IC50) on AXL and against FLT3 were at most 0.1 µM and 0.1 to 1 µM, respectively.

On to `CC(C)Nc1ncc2c(-c3ccnc(N4CCOCC4)c3)cc([C@H]3CC[C@H](O)CC3)n2n1` [Compound 350], for which the IC50 on AXL and at FLT3 was at most 0.1 µM in each case.

For `O[C@H]1CC[C@H](c2cc(-c3ccnc(N4CCOCC4)c3)c3cnc(NCCC(F)(F)F)nn32)CC1` [Compound 363], the IC50 against AXL and against FLT3 was at most 0.1 µM in each case.

With `COC[C@H](C)Nc1ncc2c(-c3cnn(CCC#N)c3)cc([C@H]3CC[C@](C)(O)CC3)n2n1` [Compound 382], the IC50 was at most 0.1 µM at AXL and 0.1 to 1 µM at FLT3.

Turning to `COC[C@H](C)Nc1ncc2c(-c3ccnc(N4CCOCC4)c3)cc([C@H]3CC[C@H](O)CC3)n2n1` [Compound 355], the IC50 against AXL and on FLT3 was at most 0.1 µM in each case.

Regarding `COCC(C)Nc1ncc2c(-c3cnn(C(C)(C)C(=O)N4CCOC(C)(C)C4)c3)cc(C3CCC(O)CC3)n2n1` (stereo not drawn) [Compound 366], the IC50 was at most 0.1 µM at AXL and 1 to 10 µM on FLT3.

In the case of `COC[C@H](C)Nc1ncc2c(-c3ccnc(O[C@@H]4CCNC4)c3)cc([C@H]3CC[C@H](O)CC3)n2n1` [Compound 401], the IC50 on AXL is at most 0.1 µM; on FLT3 it was 0.1 to 1 µM.

For the compound `COC[C@H](C)Nc1ncc2c(-c3ccnc(N4CCS(=O)(=O)CC4)c3)cc([C@H]3CC[C@H](O)CC3)n2n1` [Compound 357], the results for the IC50 at AXL and at FLT3 were at most 0.1 µM and 0.1 to 1 µM, respectively.

Regarding `COC[C@H](C)Nc1ncc2c([C@H]3CCCN(c4ccnc(C)n4)C3)cc([C@H]3CC[C@H](O)CC3)n2n1` [Compound 377], the figures for the 50% inhibitory concentration (IC50) against AXL and against FLT3 were 0.1 to 1 µM and 1 to 10 µM, respectively.

Consider `COC[C@H](C)Nc1ncc2c(-c3cnn(C4COC4)c3)cc(C3CCC(=O)CC3)n2n1` [Compound 406], for which the IC50 on AXL and against FLT3 was 0.1 to 1 µM throughout.

In the case of `CNC(=O)c1ncc(-c2cc([C@H]3CC[C@H](O)CC3)n3nc(N[C@@H](C)COC(F)F)ncc23)cn1` [Compound 407], the IC50 is at most 0.1 µM at AXL and 0.1 to 1 µM at FLT3.

For the compound `OC1CCC(c2cc(-c3ccnc(N4CCOCC4)c3)c3cnc(NCCC4CC4)nn23)CC1` (stereo not drawn) [Compound 359], the IC50 on AXL and against FLT3 was at most 0.1 µM in each case.

For the compound `COC[C@H](C)Nc1ncc2c(-c3ccnc(NC4CCOC4)c3)cc([C@H]3CC[C@H](O)CC3)n2n1` (stereo partly drawn) [Compound 418], the results for the IC50 at AXL and against FLT3 were at most 0.1 µM and 0.1 to 1 µM, respectively.

Regarding `COC[C@H](C)Nc1ncc2c(-c3ccnc(OC4COC4)c3)cc([C@H]3CC[C@H](O)CC3)n2n1` [Compound 358], the results for the IC50 against AXL and against FLT3 were at most 0.1 µM and 1 to 10 µM, respectively.
